From article PMC6979384, “Characterization of the plant homeodomain (PHD) reader family for their histone tail interactions” (Epigenetics & Chromatin, 2020)

How the values were obtained:
Assay in all cases: Histone peptide microarray
Format in all cases: binding, human
AIRE (PP) = settings: AIRE (PP); sheet "Array Heatmap"; each array performed twice, total n = 4
Summary of the method: (§1)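 Using an optimized microarray protocol, purified GST-tagged PHD fingers were incubated at 0.5 μM on 293 histone peptides with single or multiple modifications, and array signal was recorded as the average of 4 replicates.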

BAZ2B = settings: BAZ2B; sheet "Array Heatmap"; each array performed twice, total n = 4
Summary of the method: as §1

BPTF (PB) = settings: BPTF (PB); sheet "Array Heatmap"; each array performed twice, total n = 4
Summary of the method: as §1

CHD4 (PPCC) = settings: CHD4 (PPCC); sheet "Array Heatmap"; each array performed twice, total n = 4
Summary of the method: as §1

CHD5 (PCC) = settings: CHD5 (PCC); sheet "Array Heatmap"; each array performed twice, total n = 4
Summary of the method: as §1

CHD5 (PPCC) = settings: CHD5 (PPCC); sheet "Array Heatmap"; each array performed twice, total n = 4
Summary of the method: as §1

DIDO1 = settings: DIDO1; sheet "Array Heatmap"; each array performed twice, total n = 4
Summary of the method: as §1

DPF2 (PPC2W2) = settings: DPF2 (PPC2W2); sheet "Array Heatmap"; each array performed twice, total n = 4
Summary of the method: as §1

ING1 = settings: ING1; sheet "Array Heatmap"; each array performed twice, total n = 4
Summary of the method: as §1

ING2 = settings: ING2; sheet "Array Heatmap"; each array performed twice, total n = 4
Summary of the method: as §1

ING3 = settings: ING3; sheet "Array Heatmap"; each array performed twice, total n = 4
Summary of the method: as §1

ING4 = settings: ING4; sheet "Array Heatmap"; each array performed twice, total n = 4
Summary of the method: as §1

ING5 = settings: ING5; sheet "Array Heatmap"; each array performed twice, total n = 4
Summary of the method: as §1

KDM4C (TTP) = settings: KDM4C (TTP); sheet "Array Heatmap"; each array performed twice, total n = 4
Summary of the method: as §1

KDM5A (1) = settings: KDM5A (1); sheet "Array Heatmap"; each array performed twice, total n = 4
Summary of the method: as §1

KDM5A (3) = settings: KDM5A (3); sheet "Array Heatmap"; each array performed twice, total n = 4
Summary of the method: as §1

KDM5B (1) = settings: KDM5B (1); sheet "Array Heatmap"; each array performed twice, total n = 4
Summary of the method: as §1

KDM5B (3) = settings: KDM5B (3); sheet "Array Heatmap"; each array performed twice, total n = 4
Summary of the method: as §1

KDM7A = settings: KDM7A; sheet "Array Heatmap"; each array performed twice, total n = 4
Summary of the method: as §1

MLL5 = settings: MLL5; sheet "Array Heatmap"; each array performed twice, total n = 4
Summary of the method: as §1

MORC3 (CW) = settings: MORC3 (CW); sheet "Array Heatmap"; each array performed twice, total n = 4
Summary of the method: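 Steps: express and purify GST-tagged PHD reader; incubate 0.5 μM protein on a peptide microarray (293 histone peptides, single or combined PTMs) following an optimized protocol; average signal across 4 replicates.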

PHF13 = settings: PHF13; sheet "Array Heatmap"; each array performed twice, total n = 4
Summary of the method: as §1

PHF21A = settings: PHF21A; sheet "Array Heatmap"; each array performed twice, total n = 4
Summary of the method: as §1

PHF23 = settings: PHF23; sheet "Array Heatmap"; each array performed twice, total n = 4
Summary of the method: as §1

PHF2 = settings: PHF2; sheet "Array Heatmap"; each array performed twice, total n = 4
Summary of the method: as §1

PHF8 = settings: PHF8; sheet "Array Heatmap"; each array performed twice, total n = 4
Summary of the method: as §1

PHRF1 (RP) = settings: PHRF1 (RP); sheet "Array Heatmap"; each array performed twice, total n = 4
Summary of the method: as §1

RAG2 = settings: RAG2; sheet "Array Heatmap"; each array performed twice, total n = 4
Summary of the method: as §1

SP140L = settings: SP140L; sheet "Array Heatmap"; each array performed twice, total n = 4
Summary of the method: as §1

TAF3 = settings: TAF3; sheet "Array Heatmap"; each array performed twice, total n = 4
Summary of the method: as §1

TRIM66 (PB) = settings: TRIM66 (PB); sheet "Array Heatmap"; each array performed twice, total n = 4
Summary of the method: as §1

Substance: H4K5ac + K8ac + K12me1 + K16ac: H4 1-23
- Array Heatmap value (peptide array signal) (AIRE (PP)): 0.4852
- Array Heatmap value (peptide array signal) (BAZ2B): 0.5334
- Array Heatmap value (peptide array signal) (BPTF (PB)): 0.4205
- Array Heatmap value (peptide array signal) (CHD4 (PPCC)): 0.628
- Array Heatmap value (peptide array signal) (CHD5 (PCC)): 0.8246
- Array Heatmap value (peptide array signal) (CHD5 (PPCC)): 0.6457
- Array Heatmap value (peptide array signal) (DIDO1): 0.7398
- Array Heatmap value (peptide array signal) (DPF2 (PPC2W2)): 0.7404
- Array Heatmap value (peptide array signal) (ING1): 0.5999
- Array Heatmap value (peptide array signal) (ING2): 0.6062
- Array Heatmap value (peptide array signal) (ING3): 0.5746
- Array Heatmap value (peptide array signal) (ING4): 0.538
- Array Heatmap value (peptide array signal) (ING5): 0.4233
- Array Heatmap value (peptide array signal) (KDM4C (TTP)): 0.5546
- Array Heatmap value (peptide array signal) (KDM5A (1)): 0.525
- Array Heatmap value (peptide array signal) (KDM5A (3)): 0.4814
- Array Heatmap value (peptide array signal) (KDM5B (1)): 0.6517
- Array Heatmap value (peptide array signal) (KDM5B (3)): 0.5615
- Array Heatmap value (peptide array signal) (KDM7A): 0.3906
- Array Heatmap value (peptide array signal) (MLL5): 0.5904
- Array Heatmap value (peptide array signal) (MORC3 (CW)): 0.4079
- Array Heatmap value (peptide array signal) (PHF13): 0.7176
- Array Heatmap value (peptide array signal) (PHF21A): 0.5148
- Array Heatmap value (peptide array signal) (PHF23): 0.5681
- Array Heatmap value (peptide array signal) (PHF2): 0.5943
- Array Heatmap value (peptide array signal) (PHF8): 0.3954
- Array Heatmap value (peptide array signal) (PHRF1 (RP)): 0.5035
- Array Heatmap value (peptide array signal) (RAG2): 0.2841
- Array Heatmap value (peptide array signal) (SP140L): 0.4016
- Array Heatmap value (peptide array signal) (TAF3): 0.2985
- Array Heatmap value (peptide array signal) (TRIM66 (PB)): 0.6523

Substance: H4K5ac + K8ac + K16ac: H4 1-23
- Array Heatmap value (peptide array signal) (AIRE (PP)): 0.4269
- Array Heatmap value (peptide array signal) (BAZ2B): 0.469
- Array Heatmap value (peptide array signal) (BPTF (PB)): 0.3802
- Array Heatmap value (peptide array signal) (CHD4 (PPCC)): 0.6069
- Array Heatmap value (peptide array signal) (CHD5 (PCC)): 0.7848
- Array Heatmap value (peptide array signal) (CHD5 (PPCC)): 0.5628
- Array Heatmap value (peptide array signal) (DIDO1): 0.7386
- Array Heatmap value (peptide array signal) (DPF2 (PPC2W2)): 0.7091
- Array Heatmap value (peptide array signal) (ING1): 0.5586
- Array Heatmap value (peptide array signal) (ING2): 0.5942
- Array Heatmap value (peptide array signal) (ING3): 0.5105
- Array Heatmap value (peptide array signal) (ING4): 0.4699
- Array Heatmap value (peptide array signal) (ING5): 0.3649
- Array Heatmap value (peptide array signal) (KDM4C (TTP)): 0.487
- Array Heatmap value (peptide array signal) (KDM5A (1)): 0.4528
- Array Heatmap value (peptide array signal) (KDM5A (3)): 0.4685
- Array Heatmap value (peptide array signal) (KDM5B (1)): 0.6453
- Array Heatmap value (peptide array signal) (KDM5B (3)): 0.4621
- Array Heatmap value (peptide array signal) (KDM7A): 0.3432
- Array Heatmap value (peptide array signal) (MLL5): 0.5646
- Array Heatmap value (peptide array signal) (MORC3 (CW)): 0.3785
- Array Heatmap value (peptide array signal) (PHF13): 0.6186
- Array Heatmap value (peptide array signal) (PHF21A): 0.485
- Array Heatmap value (peptide array signal) (PHF23): 0.5402
- Array Heatmap value (peptide array signal) (PHF2): 0.5897
- Array Heatmap value (peptide array signal) (PHF8): 0.3765
- Array Heatmap value (peptide array signal) (PHRF1 (RP)): 0.4907
- Array Heatmap value (peptide array signal) (RAG2): 0.2519
- Array Heatmap value (peptide array signal) (SP140L): 0.3822
- Array Heatmap value (peptide array signal) (TAF3): 0.2628
- Array Heatmap value (peptide array signal) (TRIM66 (PB)): 0.6293
